# Experimental data published in ChEMBL document CHEMBL1255205, “Validated predictive QSAR modeling of N-aryl-oxazolidinone-5-carboxamides for anti-HIV protease activity” (Bioorg Med Chem Lett, 2010).
# Biological target: Protease (Human immunodeficiency virus 1, UniProt Q9YQ12)
# Assay: Inhibition of HIV1 protease
# Protease, sequence (Q9YQ12 whole entry): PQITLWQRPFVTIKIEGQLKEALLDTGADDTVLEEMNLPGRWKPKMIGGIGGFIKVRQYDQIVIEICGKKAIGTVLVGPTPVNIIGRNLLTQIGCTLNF
row,SMILES,Ki [nM]
1,CC(=O)c1cccc(N2CC(C(=O)NN(Cc3ccc(-c4ccccn4)cc3)CC(O)[C@H](Cc3ccccc3)NC(=O)[C@@H]3CN(c4cccc(C(C)=O)c4)C(=O)O3)OC2=O)c1 (stereo partly drawn),1090
2,CC(=O)NC(C(=O)N[C@@H](Cc1ccccc1)CC(O)[C@H](Cc1ccccc1)NC(=O)[C@@H]1CN(c2cccc(C(F)(F)F)c2)C(=O)O1)C(C)C (stereo partly drawn),2.62
3,Cc1cccc(C)c1OCC(=O)N[C@@H](Cc1ccccc1)C(O)C[C@H](Cc1ccccc1)NC(=O)[C@@H]1CN(c2ccccc2)C(=O)O1 (stereo partly drawn),4730
4,CC(=O)c1cccc(N2C[C@@H](C(=O)N[C@@H](Cc3ccccc3)C(O)C[C@H](Cc3ccccc3)NC(=O)COc3c(C)cccc3C)OC2=O)c1 (stereo partly drawn),35.1
5,COC(=O)NC(C(=O)NN(CC(C)C)CC(O)[C@H](Cc1ccccc1)NC(=O)[C@@H]1CN(c2ccccc2)C(=O)O1)C(C)(C)C (stereo partly drawn),7
6,CC(=O)c1ccc(N2C[C@@H](C(=O)N[C@@H](Cc3ccccc3)C(O)C[C@H](Cc3ccccc3)NC(=O)COc3c(C)cccc3C)OC2=O)cc1 (stereo partly drawn),39.9
7,Cc1cccc(C)c1OCC(=O)N[C@@H](Cc1ccccc1)CC(O)[C@H](Cc1ccccc1)NC(=O)[C@@H]1CN(c2ccccc2)C(=O)O1 (stereo partly drawn),8.05
8,COC(=O)NC(C(=O)N[C@@H](Cc1ccccc1)C(O)CN(CC(C)C)NC(=O)C1CN(c2ccccc2)C(=O)O1)C(C)(C)C (stereo partly drawn),10.6
9,O=C(Cc1ccc2c(c1)OCO2)N[C@H](CC[C@H](Cc1ccccc1)NC(=O)[C@@H]1CN(c2ccccc2)C(=O)O1)Cc1ccccc1,657
10,COC(=O)NC(C(=O)N[C@@H](Cc1ccccc1)CC(O)[C@H](Cc1ccccc1)NC(=O)[C@@H]1CN(c2ccccc2)C(=O)O1)C(C)(C)C (stereo partly drawn),3.51
11,Cc1cccc(C)c1OCC(=O)N[C@@H](Cc1ccccc1)C(O)C[C@H](Cc1ccccc1)NC(=O)[C@@H]1CN(c2cccc(C(F)(F)F)c2)C(=O)O1 (stereo partly drawn),21.6
12,CC(=O)NC(C(=O)N[C@@H](Cc1ccccc1)CC(O)[C@H](Cc1ccccc1)NC(=O)[C@@H]1CN(c2ccc(F)c(F)c2)C(=O)O1)C(C)C (stereo partly drawn),2.13
13,O=C(N[C@@H](Cc1ccccc1)C(O)C[C@H](Cc1ccccc1)NC(=O)[C@@H]1CN(c2cccc(C(F)(F)F)c2)C(=O)O1)OCc1ccccn1 (stereo partly drawn),41.1
